The values below come from US6172056A, “Pharmaceutical compositions and method for prophylaxis and therapy of radical-mediated cell damage” (Jenapharm GmbH & Co. KG, priority 1993, dated 2001).

As usually defined, the IC50 is the point on the concentration scale where inhibition reaches its midpoint.

The test system of test [1] is lipid peroxidation (synaptosomal membrane fraction, Fenton's reagent). Put plainly: In vitro inhibition of lipid peroxidation, thiobarbituric acid test. Conditions: 30 min at 37° C. Format: biochemical.
For the next test, the target named is T1, estrogen receptor (Oryctolagus cuniculus, UniProt G1SML6).
T1 construct: in uterine cytosol of the infantile rabbit; from tissue; host or cells: uterine cytosol of infantile rabbit
T1 sequence (G1SML6 1-598): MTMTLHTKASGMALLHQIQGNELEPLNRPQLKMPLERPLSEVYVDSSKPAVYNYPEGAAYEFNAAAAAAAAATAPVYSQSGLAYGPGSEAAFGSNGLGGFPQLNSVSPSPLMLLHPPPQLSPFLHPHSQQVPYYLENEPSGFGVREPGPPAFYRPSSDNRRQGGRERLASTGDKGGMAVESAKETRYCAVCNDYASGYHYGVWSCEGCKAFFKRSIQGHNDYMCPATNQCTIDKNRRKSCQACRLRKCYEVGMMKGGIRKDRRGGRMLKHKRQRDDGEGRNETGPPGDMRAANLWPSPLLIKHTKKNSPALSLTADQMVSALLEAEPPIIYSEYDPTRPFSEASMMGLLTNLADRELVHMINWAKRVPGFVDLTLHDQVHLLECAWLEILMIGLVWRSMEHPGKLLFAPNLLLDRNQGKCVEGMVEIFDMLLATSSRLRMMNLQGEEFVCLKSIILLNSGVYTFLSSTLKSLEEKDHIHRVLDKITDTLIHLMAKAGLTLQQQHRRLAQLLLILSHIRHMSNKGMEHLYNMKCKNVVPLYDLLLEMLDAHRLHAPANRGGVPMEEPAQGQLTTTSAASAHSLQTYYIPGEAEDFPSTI
In words: Estrogen receptor binding, competitive with 3H-ethinyl estradiol in uterine cytosol. The conditions noted are these: RBA relative to 17β-estradiol, infantile rabbit uterine cytosol, 0° C. Here is the method: Statements about estrogen affinity are made by measuring the estrogen receptor binding.
Measuring the estrogen receptor binding is done by competitive binding of the ^3 H-labelled synthetic estrogen ethinyl estradiol and of the compounds to be tested in uterine cytosol of the infantile rabbit at 0° C. Reaction equilibrium and receptor saturation are the goal.
With the statement about the RBA values, the estrogen receptor affinity of the particular compound is characterized; taking into account certain prerequisites for in vitro investigations (such as a free 30H group), it is a measure for estrogen affinity (again, see Table 1).

In test [2] the test system is LDL, isolated from human whole blood. Put plainly: In vitro inhibition of LDL oxidation (Esterbauer et al), CuSO4-induced. Conditions: 5 μmol test compound, 10 μmol CuSO4.
Another test concerns peroxidation. The conditions noted are these: literature statement; cited from earlier work.

Consider `C[C@]12CCc3c(ccc4cc(O)ccc34)[C@@H]1CC[C@H]2O` [6,8-Didehydro-17α-estradiol], for which the midpoint of inhibition in test [1], the IC50, lay at 5.1 µM.
`CC(CO)[C@H]1CC[C@H]2[C@@H]3CCc4cc(O)ccc4[C@H]3CC[C@]12C` (stereo partly shown) [20-hydroxymethyl-3-hydroxy-19-norpregna-1,3,5(10)-triene]: the “Relative binding affinity to estrogen receptor” value (shortened to “Relative binding affinity”) on estrogen receptor came out at 22.5%. The compound further registered an IC50 in test [1] of 14.4 µM.
`C[C@]12CCC3=C(CCc4cc(O)ccc43)[C@@H]1CC[C@H]2O` [8-Dehydro-17α-estradiol] displayed an IC50 in test [1] of 4.1 µM. In other words, the single-digit micromolar range.
As for `C[C@]12CC[C@@H]3c4ccc(O)cc4CC[C@H]3[C@@H]1C[C@@H](O)[C@@H]2O` [Estriol, reference compound], the “LDL oxidation inhibition (prolongation of the lag phase in min)” value (“LDL oxidation inhibition” for short) in test [2] was determined as 45 min. Further, on estrogen receptor, the “Relative binding affinity” value was 10.3%. Also, the “Inhibition of peroxidation in vitro and in vivo” value (shortened to “Inhibition of peroxidation”) with peroxidation is “inhibit peroxidation in vitro and in vivo”. The IC50 in test [1] stood at 122 µM.
Regarding `Cc1c(C)c2c(c(C)c1O)CCC(C)(CN1CCN(c3cc(N4CCCC4)nc(N4CCCC4)n3)CC1)O2` (stereo not shown) [Compound U-78517F, reference compound], in test [2], the “LDL oxidation inhibition” value worked out at 70 min. The same compound showed an IC50 in test [1] of 1.8 µM.
Consider `C[C@]12CC[C@@H]3c4ccc(O)cc4CC[C@H]3[C@@H]1CC[C@@H]2O` [17β-Estradiol, reference compound], for which, in test [2], the “LDL oxidation inhibition” value stood at 110 min. For the same compound, the “Inhibition of peroxidation” value in the test on peroxidation is “inhibit peroxidation in vitro and in vivo”. The compound further yielded an IC50 in test [1] of 12.4 µM.
Regarding `C[C@]12CC[C@@H]3c4ccc(O)cc4CC[C@H]3[C@@]13C[C@H]3C[C@@H]2O` [14α,15α-Methylene estradiol], the 50% inhibitory concentration (IC50) in test [1] lay within 5 to 10 µM.
Take `C[C@]12CC[C@@H]3c4ccc(O)cc4CC[C@H]3[C@@H]1CCC2=O` [estrone]: the “Inhibition of peroxidation” value in the test on peroxidation is “inhibit peroxidation in vitro and in vivo”.
In the case of `C[C@@]12CC[C@H]3c4ccc(O)cc4CC[C@@H]3[C@H]1CC[C@H]2O` [ent-Estradiol], the “LDL oxidation inhibition” value in test [2] was determined as 120 min. The same compound had an IC50 in test [1] of 8.8 µM.
On to `C[C@]12CC[C@@H]3c4ccc(O)cc4CC[C@H]3[C@@H]1CC[C@H]2O` [17α-Estradiol], for which it took 8.9 µM to reach half-maximal inhibition in test [1] (IC50).
Take `C[C@]12CCC3=C(CCc4cc(O)ccc43)[C@@H]1CC[C@@H]2O` [8-Dehydroestradiol]: in test [2], the “LDL oxidation inhibition” value came to 120 min. Also, the “Relative binding affinity” value on estrogen receptor came to 59.6%. The IC50 in test [1] amounted to 1 µM.
In test [1], `COc1cc2c(cc1O)[C@H]1CC[C@]3(C)[C@@H](O)CC[C@H]3[C@@H]1CC2` [2-Hydroxyestradiol-3-methyl ether] registered a half-inhibitory concentration (IC50) of 3.2 µM.
With `C[C@]12CC[C@@H]3c4ccc(O)cc4C=C[C@H]3[C@@H]1C[C@@H](O)[C@@H]2O` [6-Dehydroestriol], the “Relative binding affinity” value at estrogen receptor was 7.9%. In test [1], this compound had an IC50 of 45.6 µM.
As to `C[C@]12CC=C3c4ccc(O)cc4CC[C@H]3[C@@H]1CC[C@@]21CO1` [3-Hydroxy-1,3,5(10),9(11)-estratetraene-17S-spirooxirane], the “LDL oxidation inhibition” value in test [2] is 210 min. For the same compound, the half-inhibitory concentration (IC50) in test [1] worked out at 0.81 µM.
For `C[C@]12CC[C@@H]3c4ccc(O)cc4CC[C@H]3[C@@H]1CC[C@@]21CO1` [3-Hydroxy-1,3,5(10)-estratriene-17S-spirooxirane], the “LDL oxidation inhibition” value in test [2] is given as 170 min. For the same compound, inhibition in test [1] was half-maximal at 4.11 µM (IC50).
Consider `C[C@]12CC[C@@H]3c4cc(O)c(O)cc4CC[C@H]3[C@@H]1CC[C@@H]2O` [2-hydroxyestradiol], for which, in the test on peroxidation, the “Inhibition of peroxidation” value is “inhibit peroxidation in vitro and in vivo”.
`C[C@]12CCC3=C(CCc4cc(O)ccc43)[C@@]13C[C@H]3C[C@@H]2O` [14α,15α-Methylene-8-dehydroestradiol]: it took 0.9 µM to reach half-maximal inhibition in test [1] (IC50). That is a sub-micromolar value.
On the same count and under the same terms, the value for `C[C@]12CCC3=C(CCc4cc(O)ccc43)[C@]13C[C@@H]3C[C@@H]2O` [14β,15β-Methylene-8 dehydroestradiol, 14β,15β-methylene-8-dehydroestradiol] was 1.9 µM.
As to `C[C@]12CC=C3c4ccc(O)cc4CC[C@H]3[C@@H]1C[C@@H](O)[C@@H]2O` [9(11)-dehydroestriol], the “Relative binding affinity” value on estrogen receptor came out at 7.5%. Also, it took 10.6 µM to reach half-maximal inhibition in test [1] (IC50).
In test [1], Vitamin E [reference compound] yielded an IC50 of 132 µM.
